Experimental data from patent US8445492B2, “Method for inhibiting growth of cancer cells and cell telomere and diseases of cell proliferation by using heteroannelated anthraquinone derivative compounds” (National Defense Medical Center, priority 2008, dated 2013).

Tests used:
Format in all cases: cell-based
SN12C = assay: NCI DTP in-vitro dose response, Renal Cancer
HCT-15 = assay: NCI DTP in-vitro dose response, Colon Cancer
SF-268 = assay: NCI DTP in-vitro dose response, CNS Cancer
U251 = assay: NCI DTP in-vitro dose response, CNS Cancer
NCI/ADR-RES = assay: NCI DTP in-vitro dose response, Breast Cancer
MDA-MB-435 = assay: NCI DTP in-vitro dose response, Breast Cancer
UACC-62 [1] = assay: NCI DTP in-vitro dose response, Melanoma
OVCAR-4 = assay: NCI DTP in-vitro dose response, Ovarian Cancer
SNB-75 = assay: NCI DTP in-vitro dose response, CNS Cancer
MDA-MB-468 = assay: NCI DTP in-vitro dose response, Breast Cancer
SK-MEL-5 = assay: NCI DTP in-vitro dose response, Melanoma
KM12 = assay: NCI DTP in-vitro dose response, Colon Cancer
MDA-MB-231/ATCC = assay: NCI DTP in-vitro dose response, Breast Cancer
HT29 = assay: NCI DTP in-vitro dose response, Colon Cancer
UACC-62 [2] = assay: in vitro test at 1.0×10^−5 M, Skin cancer cell; conditions: 1.0×10^−5 molal concentration (M)
UACC-257 = assay: in vitro test at 1.0×10^−5 M, Skin cancer cell; conditions: 1.0×10^−5 molal concentration (M)

O=C1c2ccccc2C(=O)c2c1ccc1nsnc21 [No. 22, Anthra[2,1-c][1,2,5]thiadiazole-6,11-dione]
GI50 (SN12C; Homo sapiens, SN12C): 2.35 µM
CC50 (SN12C; Homo sapiens, SN12C, read-out: LC50): > 100 µM
Percent Growth (SN12C; Log10 Concentration −4.0): −35%
Percent Growth (SN12C; Log10 Concentration −5.0): −7%
Percent Growth (SN12C; Log10 Concentration −6.0): 83%
Percent Growth (SN12C; Log10 Concentration −7.0): 103%
Percent Growth (SN12C; Log10 Concentration −8.0): 91%
TGI (SN12C; SN12C): 8.42E−6
TGI (HCT-15; HCT-15): 7.80E−6
GI50 (HCT-15; Homo sapiens, HCT-15): 2.49 µM
CC50 (HCT-15; Homo sapiens, HCT-15, read-out: LC50): 90.6 µM
Percent Growth (HCT-15; Log10 Concentration −4.0): −52%
Percent Growth (HCT-15; Log10 Concentration −5.0): −11%
Percent Growth (HCT-15; Log10 Concentration −6.0): 90%
Percent Growth (HCT-15; Log10 Concentration −7.0): 104%
Percent Growth (HCT-15; Log10 Concentration −8.0): 110%
GI50 (SF-268; Homo sapiens, SF-268): 3.55 µM
CC50 (SF-268; Homo sapiens, SF-268, read-out: LC50): > 100 µM
Percent Growth (SF-268; Log10 Concentration −4.0): −46%
Percent Growth (SF-268; Log10 Concentration −5.0): 17%
Percent Growth (SF-268; Log10 Concentration −6.0): 90%
Percent Growth (SF-268; Log10 Concentration −7.0): 98%
Percent Growth (SF-268; Log10 Concentration −8.0): 101%
TGI (SF-268; SF-268): 1.87E−5
GI50 (U251; Homo sapiens, U-251): 1.6 µM
CC50 (U251; Homo sapiens, U-251, read-out: LC50): 8.32 µM
Percent Growth (U251; Log10 Concentration −4.0): −63%
Percent Growth (U251; Log10 Concentration −5.0): −61%
Percent Growth (U251; Log10 Concentration −6.0): 78%
Percent Growth (U251; Log10 Concentration −7.0): 104%
Percent Growth (U251; Log10 Concentration −8.0): 106%
TGI (U251; U251): 3.65E−6
GI50 (NCI/ADR-RES; Homo sapiens, NCI/ADR-RES): 0.432 µM
CC50 (NCI/ADR-RES; Homo sapiens, NCI/ADR-RES, read-out: LC50): > 100 µM
Percent Growth (NCI/ADR-RES; Log10 Concentration −4.0): −17%
Percent Growth (NCI/ADR-RES; Log10 Concentration −5.0): −10%
Percent Growth (NCI/ADR-RES; Log10 Concentration −6.0): 20%
Percent Growth (NCI/ADR-RES; Log10 Concentration −7.0): 102%
Percent Growth (NCI/ADR-RES; Log10 Concentration −8.0): 107%
TGI (NCI/ADR-RES; NCI/ADR-RES): 4.80E−6
GI50 (MDA-MB-435; Homo sapiens, MDA-MB-435): 1.91 µM
CC50 (MDA-MB-435; Homo sapiens, MDA-MB-435, read-out: LC50): 87.8 µM
Percent Growth (MDA-MB-435; Log10 Concentration −4.0): −51%
Percent Growth (MDA-MB-435; Log10 Concentration −5.0): −32%
Percent Growth (MDA-MB-435; Log10 Concentration −6.0): 82%
Percent Growth (MDA-MB-435; Log10 Concentration −7.0): 102%
Percent Growth (MDA-MB-435; Log10 Concentration −8.0): 100%
TGI (MDA-MB-435; MDA-MB-435): 5.23E−6
GI50 (UACC-62 [1]; Homo sapiens, UACC-62): 2.31 µM
CC50 (UACC-62 [1]; Homo sapiens, UACC-62, read-out: LC50): 96.2 µM
Percent Growth (UACC-62 [1]; Log10 Concentration −4.0): −50%
Percent Growth (UACC-62 [1]; Log10 Concentration −5.0): −23%
Percent Growth (UACC-62 [1]; Log10 Concentration −6.0): 92%
Percent Growth (UACC-62 [1]; Log10 Concentration −7.0): 91%
Percent Growth (UACC-62 [1]; Log10 Concentration −8.0): 89%
TGI (UACC-62 [1]; UACC-62): 6.29E−6
GI50 (OVCAR-4; Homo sapiens, OVCAR-4): 0.52 µM
CC50 (OVCAR-4; Homo sapiens, OVCAR-4, read-out: LC50): 4.19 µM
Percent Growth (OVCAR-4; Log10 Concentration −4.0): −100%
Percent Growth (OVCAR-4; Log10 Concentration −5.0): −100%
Percent Growth (OVCAR-4; Log10 Concentration −6.0): 32%
Percent Growth (OVCAR-4; Log10 Concentration −7.0): 94%
Percent Growth (OVCAR-4; Log10 Concentration −8.0): 107%
TGI (OVCAR-4; OVCAR-4): 1.76E−6
GI50 (SNB-75; Homo sapiens, SNB-75): 1.42 µM
CC50 (SNB-75; Homo sapiens, SNB-75, read-out: LC50): 5.22 µM
Percent Growth (SNB-75; Log10 Concentration −4.0): −100%
Percent Growth (SNB-75; Log10 Concentration −5.0): −100%
Percent Growth (SNB-75; Log10 Concentration −6.0): 77%
Percent Growth (SNB-75; Log10 Concentration −7.0): 66%
Percent Growth (SNB-75; Log10 Concentration −8.0): 76%
TGI (SNB-75; SNB-75): 2.73E−6
GI50 (MDA-MB-468; Homo sapiens, MDA-MB-468): 1.83 µM
CC50 (MDA-MB-468; Homo sapiens, MDA-MB-468, read-out: LC50): 5.72 µM
Percent Growth (MDA-MB-468; Log10 Concentration −4.0): −99%
Percent Growth (MDA-MB-468; Log10 Concentration −5.0): −99%
Percent Growth (MDA-MB-468; Log10 Concentration −6.0): 103%
Percent Growth (MDA-MB-468; Log10 Concentration −7.0): 101%
Percent Growth (MDA-MB-468; Log10 Concentration −8.0): 97%
TGI (MDA-MB-468; MDA-MB-468): 3.24E−6
GI50 (SK-MEL-5; Homo sapiens, SK-MEL-5): 1.13 µM
CC50 (SK-MEL-5; Homo sapiens, SK-MEL-5, read-out: LC50): 4.83 µM
Percent Growth (SK-MEL-5; Log10 Concentration −4.0): −100%
Percent Growth (SK-MEL-5; Log10 Concentration −5.0): −100%
Percent Growth (SK-MEL-5; Log10 Concentration −6.0): 58%
Percent Growth (SK-MEL-5; Log10 Concentration −7.0): 85%
Percent Growth (SK-MEL-5; Log10 Concentration −8.0): 98%
TGI (SK-MEL-5; SK-MEL-5): 2.34E−6
GI50 (KM12; Homo sapiens, KM12): 11.4 µM
CC50 (KM12; Homo sapiens, KM12, read-out: LC50): 94.8 µM
TGI (KM12; KM12): 3.28E−5
Percent Growth (KM12; Log10 Concentration −4.0): −53%
Percent Growth (KM12; Log10 Concentration −5.0): 56%
Percent Growth (KM12; Log10 Concentration −6.0): 103%
Percent Growth (KM12; Log10 Concentration −7.0): 108%
Percent Growth (KM12; Log10 Concentration −8.0): 107%
GI50 (MDA-MB-231/ATCC; Homo sapiens, MDA-MB-231): 2.56 µM
CC50 (MDA-MB-231/ATCC; Homo sapiens, MDA-MB-231, read-out: LC50): > 100 µM
Percent Growth (MDA-MB-231/ATCC; Log10 Concentration −4.0): 6%
Percent Growth (MDA-MB-231/ATCC; Log10 Concentration −5.0): 4%
Percent Growth (MDA-MB-231/ATCC; Log10 Concentration −6.0): 81%
Percent Growth (MDA-MB-231/ATCC; Log10 Concentration −7.0): 87%
Percent Growth (MDA-MB-231/ATCC; Log10 Concentration −8.0): 104%
TGI (MDA-MB-231/ATCC; MDA-MB-231/ATCC): >1.00E−4
TGI (HT29; HT29): 7.36E−6
GI50 (HT29; Homo sapiens, HT-29): 2.75 µM
CC50 (HT29; Homo sapiens, HT-29, read-out: LC50): 81 µM
Percent Growth (HT29; Log10 Concentration −4.0): −53%
Percent Growth (HT29; Log10 Concentration −5.0): −16%
Percent Growth (HT29; Log10 Concentration −6.0): 101%
Percent Growth (HT29; Log10 Concentration −7.0): 105%
Percent Growth (HT29; Log10 Concentration −8.0): 104%

CCc1nc2ccc3c(c2[nH]1)C(=O)c1ccccc1C3=O [No. 4, 2-Ethyl-1(3)H-anthra[1,2-d]imidazole-6,11-dione]
inhibition effect on cancer cell line (Table 2 value) (UACC-62 [2]): 51.35
inhibition effect on cancer cell line (Table 2 value) (UACC-257): 39.69
